Data: US8470771B2, “Method and medicament for inhibiting the infection of influenza virus” (priority 2007, dated 2013)
Marks after values point to notes of the source that are not given here.

Columns and labels:
influenza virus = assay type: cell-based
[1] = system: QH-WSN virus (avian influenza virus H5N1); conditions: for Inhibitory rates (%) of QH-WSN: QH-WSN virus (avian influenza virus, 200 μM); for IC50: QH-WSN virus (avian influenza virus)
[2] = system: WSN virus (human influenza virus H1N1); conditions: for Inhibitory rates (%) of WSN: WSN virus (human influenza virus, 100 μM); for IC50: WSN virus (human influenza virus)
[3] = system: JX virus (human influenza virus H3N2); conditions: for Inhibitory rates (%) of JX: JX virus (human influenza virus, 200 μM); for IC50: JX virus (human influenza virus)
[4] = system: 3 subtypes of virus i.e. H5N1, H6N1 and H9N2; conditions: read-out: 50% effect concentration (EC50); cited from earlier work

Row | Compound | Inhibitory rates (%) of QH-WSN [1] | Inhibitory rates (%) of WSN [2] | Inhibitory rates (%) of JX [3] | further results
1 | KLPDDFMGCV |  |  |  | inhibition of the infection of influenza virus (influenza virus): did not inhibit the infection of influenza virus
2 | CC[C@H](C)[C@H](NC(=O)[C@H](CCCNC(=N)N)NC(=O)[C@@H](N)CCCNC(=N)N)C(=O)N[C@@H](CCC(=O)O)C(=O)N[C@@H](CC(N)=O)C(=O)N[C@@H](CC(C)C)C(=O)N[C@@H](CC(N)=O)C(=O)N[C@@H](CCCCN)C(=O)N[C@@H](CCCCN)C(=O)N[C@@H](CCSC)C(=O)N[C@@H](CCC(=O)O)C(=O)N[C@@H](CC(=O)O)C(=O)NCC(=O)N[C@@H](Cc1ccccc1)C(=O)N[C@@H](CC(C)C)C(=O)N[C@@H](CC(=O)O)C(=O)N[C@H](C(=O)N[C@@H](Cc1c[nH]c2ccccc12)C(=O)N[C@H](C(=O)N[C@@H](Cc1ccc(O)cc1)C(=O)O)[C@@H](C)O)C(C)C [HR2A] | 56.9* % | 42.0** % | 51.4* % | 
3 | CC[C@H](C)[C@H](NC(=O)[C@H](C)NC(=O)[C@H](CCCCN)NC(=O)[C@H](CCC(N)=O)NC(=O)[C@@H](NC(=O)[C@H](CO)NC(=O)[C@H](CCC(=O)O)NC(=O)[C@@H](N)CCCCN)[C@@H](C)O)C(=O)N[C@@H](CC(=O)O)C(=O)NCC(=O)N[C@H](C(=O)N[C@H](C(=O)N[C@@H](C)C(=O)N[C@@H](C)C(=O)N[C@@H](C)C(=O)N[C@@H](C)C(=O)N[C@@H](CC(N)=O)C(=O)N[C@@H](CCCCN)C(=O)N[C@H](C(=O)N[C@@H](CC(N)=O)C(=O)N[C@@H](CO)C(=O)N[C@H](C(=O)N[C@H](C(=O)N[C@@H](CC(=O)O)C(=O)N[C@@H](CCCCN)C(=O)O)[C@@H](C)CC)[C@@H](C)CC)C(C)C)[C@@H](C)O)C(C)C [HR1-2] |  |  |  | IC50 [1]: 104 ± 28.6 µM; IC50 [2]: 110 ± 28.2 µM; IC50 [3]: 112 ± 19.5 µM
4 | CC[C@H](C)[C@H](NC(=O)[C@H](CCCCN)NC(=O)[C@H](CCC(N)=O)NC(=O)[C@@H](NC(=O)[C@H](CO)NC(=O)[C@H](CCC(=O)O)NC(=O)[C@@H](N)CCCCN)[C@@H](C)O)C(=O)N[C@H](C(=O)N[C@@H](CC(=O)O)C(=O)NCC(=O)N[C@H](C(=O)N[C@H](C(=O)N[C@@H](CC(N)=O)C(=O)N[C@@H](CCCCN)C(=O)N[C@H](C(=O)N[C@@H](CC(N)=O)C(=O)N[C@@H](CO)C(=O)N[C@H](C(=O)N[C@H](C(=O)N[C@@H](CC(=O)O)C(=O)N[C@@H](CCCCN)C(=O)O)[C@@H](C)CC)[C@@H](C)CC)C(C)C)[C@@H](C)O)C(C)C)[C@@H](C)CC [HR1-1] |  |  |  | IC50 [1]: 32.7 ± 6.5 µM; IC50 [2]: 29.3 ± 5.7 µM; IC50 [3]: 38.2 ± 7.8 µM
5 | CC(=O)N[C@H]1[C@H]([C@H](O)[C@H](O)CO)OC(C(=O)O)=C[C@@H]1N=C(N)N [Zanamivir] |  |  |  | EC50 [4]: 8.5 to 14 µM
6 | CSCC[C@H](NC(=O)[C@H](CC(C)C)NC(=O)[C@@H](NC(=O)[C@H](CC(C)C)NC(=O)[C@H](CC(C)C)NC(=O)[C@H](CCC(=O)O)NC(=O)[C@H](C)NC(=O)[C@@H](N)CC(N)=O)C(C)C)C(=O)N[C@@H](CCC(=O)O)C(=O)N[C@@H](CC(N)=O)C(=O)N[C@@H](CCC(=O)O)C(=O)N[C@@H](CCCNC(=N)N)C(=O)N[C@H](C(=O)N[C@@H](CC(C)C)C(=O)N[C@@H](CC(=O)O)C(=O)N[C@@H](Cc1ccccc1)C(=O)N[C@@H](Cc1c[nH]cn1)C(=O)N[C@@H](CC(=O)O)C(=O)N[C@@H](CO)C(=O)N[C@@H](CC(N)=O)C(=O)N[C@H](C(=O)N[C@@H](CCCCN)C(=O)N[C@@H](CC(N)=O)C(=O)O)C(C)C)[C@@H](C)O [HR2B] | 63.8* % | 43.0** % | 15.2* % | 
7 | CC(C)C[C@H](NC(=O)[C@H](CCCNC(=N)N)NC(=O)[C@@H](NC(=O)[C@H](CCCCN)NC(=O)[C@H](CC(=O)O)NC(=O)[C@H](Cc1ccc(O)cc1)NC(=O)[C@H](CC(C)C)NC(=O)[C@H](CC(N)=O)NC(=O)[C@H](CCCCN)NC(=O)[C@@H](NC(=O)[C@H](CC(N)=O)NC(=O)[C@H](CO)NC(=O)[C@H](CC(=O)O)NC(=O)[C@H](Cc1c[nH]cn1)NC(=O)[C@@H](N)Cc1ccccc1)C(C)C)C(C)C)C(=O)N[C@@H](CCC(N)=O)C(=O)O [HR2C] | 53.1* % | 29.6** % | 17.1* % | 
